Biological target: Factor D (Homo sapiens (Human), UniProt P00746)
Experiment: biochemical
Assay type: biochemical
Settings: read-out: IC50

Sequence of Factor D (P00746 26-253): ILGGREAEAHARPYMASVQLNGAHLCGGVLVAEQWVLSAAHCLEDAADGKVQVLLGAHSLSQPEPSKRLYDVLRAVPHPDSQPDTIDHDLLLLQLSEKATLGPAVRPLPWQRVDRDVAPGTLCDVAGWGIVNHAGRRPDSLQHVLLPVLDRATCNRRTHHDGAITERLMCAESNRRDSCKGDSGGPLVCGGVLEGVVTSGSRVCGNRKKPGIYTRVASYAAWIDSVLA

Row | SMILES | IC50
1 | C[C@H]1C[C@@H](C(=O)NCc2cccc(Cl)c2F)N(C(=O)Nc2cn(C(N)=O)c3ccccc23)C1 [Example 182, (2S,4S)-4-Methyl-pyrrolidine-1,2-dicarboxylic acid 1-[(1-carbamoyl-1H-indol-3-yl)-amide] 2-(3-chloro-2-fluoro-benzylamide)] | 63 nM
2 | COC[C@@H](NC(=O)[C@@H]1[C@H]2C[C@H]2CN1C(=O)Nc1cn(C(N)=O)c2ccccc12)c1cccc(Cl)c1F [Example 245, (1S,2S,5R)-3-Aza-bicyclo[3.1.0]hexane-2,3-dicarboxylic acid 3-[(1-carbamoyl-1H-indol-3-yl)-amide] 2-{[(S)-1-(3-chloro-2-fluoro-phenyl)-2-methoxy-ethyl]-amide}] | 1050 nM
3 | NC(=O)n1cc(NC(=O)N2CCS[C@H]2C(=O)NCc2ccc(Cl)s2)c2ccccc21 [Example 293, (S)-Thiazolidine-2,3-dicarboxylic acid 3-[(1-carbamoyl-1H-indol-3-yl)-amide] 2-[(5-chloro-thiophen-2-ylmethyl)-amide]] | 35 nM
4 | C[C@@]12C[C@@H](C(=O)NCc3cccc(Cl)c3F)N(C(=O)Cn3nc(C(N)=O)c4ccncc43)[C@@H]1C2 [Example 675, 1-{2-[(1R,3S,5R)-3-(3-Chloro-2-fluoro-benzylcarbamoyl)-5-methyl-2-aza-bicyclo [3.1.0]hex-2-yl]-2-oxo-ethyl}-1H-pyrazolo[3,4-c]pyridine-3-carboxylic acid amide] | 23 nM
5 | COC[C@@H](NC(=O)[C@@H]1C[C@H]2C[C@H]2N1C(=O)Cn1cc(C(C)=O)c2ccccc21)c1cccc(Cl)c1F [Example 568, (1R,3S,5R)-2-[2-(3-Acetyl-indol-1-yl)-acetyl]-2-aza-bicyclo[3.1.0]hexane-3-carboxylic acid [(S)-1-(3-chloro-2-fluoro-phenyl)-2-methoxy-ethyl]-amide] | 121 nM
6 | NC(=O)c1nn(CC(=O)N2[C@@H]3C[C@@H]3C[C@H]2C(=O)Nc2cccc(-c3ncccc3F)c2F)c2ccccc12 [Example 686, 1-(2-{(1R,3S,5R)-3-[2-Fluoro-3-(3-fluoro-pyridin-2-yl)-phenylcarbamoyl]-2-aza-bicyclo[3.1.0]hex-2-yl}-2-oxo-ethyl)-1H-indazole-3-carboxylic acid amide] | 30 nM
7 | CO[C@H]1[C@@H](C(=O)N[C@H](C)c2cccc(Cl)c2F)N(C(=O)Cn2nc(C(N)=O)c3cnccc32)C[C@@H]1F [Example 665, 1-(2-{(2S,3S,4S)-2-[(R)-1-(3-Chloro-2-fluoro-phenyl)-ethylcarbamoyl]-4-fluoro-3-methoxy-pyrrolidin-1-yl}-2-oxo-ethyl)-1H-pyrazolo[4,3-c]pyridine-3-carboxylic acid amide] | 58 nM
8 | NC[C@@]1(F)C[C@@H](C(=O)NCc2cccc(Cl)c2F)N(C(=O)Cc2cn(C(N)=O)c3ccccc23)C1 [Example 470, 3-{2-[(2S,4S)-4-Aminomethyl-2-(3-chloro-2-fluoro-benzylcarbamoyl)-4-fluoro-pyrrolidin-1-yl]-2-oxo-ethyl}-indole-1-carboxylic acid amide] | 250 nM
9 | CC(=O)c1cn(CC(=O)N2C[C@](C)(F)C[C@H]2C(=O)NCc2cccc(Cl)c2F)c2cnccc12 [Example 482, (2S,4R)-1-[2-(3-Acetyl-pyrrolo[2,3-c]pyridin-1-yl)-acetyl]-4-fluoro-4-methyl-pyrrolidine-2-carboxylic acid 3-chloro-2-fluoro-benzylamide] | 188 nM
10 | COc1ccc2c(C(C)=O)cn(CC(=O)N3C[C@H](F)C[C@H]3C(=O)NCc3cccc(Cl)c3F)c2c1 [Example 500, (2S,4R)-1-[2-(3-Acetyl-6-methoxy-indol-1-yl)-acetyl]-4-fluoro-pyrrolidine-2-carboxylic acid 3-chloro-2-fluoro-benzylamide] | 36 nM
11 | CC(=O)n1cc(NC(=O)N2CCC[C@H]2C(=O)Nc2cccc(OC(F)(F)F)c2)c2ccc(C#N)cc21 [Example 367, (S)-Pyrrolidine-1,2-dicarboxylic acid 1-[(1-acetyl-6-cyano-1H-indol-3-yl)-amide]2-[(3-trifluoromethoxy-phenyl)-amide]] | 7950 nM
12 | CC(C)(C)n1nnnc1-c1cc(Br)cc(NC(=O)[C@@H]2C[C@H]3C[C@H]3N2C(=O)Nc2cn(C(N)=O)c3ccccc23)c1 [Example 345, (1R,3S,5R)-2-Aza-bicyclo[3.1.0]hexane-2,3-dicarboxylic acid 3-{[3-bromo-5-(1-tert-butyl-1H-tetrazol-5-yl)-phenyl]-amide}2-[(1-carbamoyl-1H-indol-3-yl)-amide]] | 800 nM
13 | NC(=O)n1cc(CC(=O)N2[C@@H]3C[C@@H]3C[C@H]2C(=O)NCc2cccc(Cl)c2F)c2ccccc21 [Example 446, 3-{2-[(1R,3S,5R)-3-(3-Chloro-2-fluoro-benzylcarbamoyl)-2-aza-bicyclo[3.1.0]hex-2-yl]-2-oxo-ethyl}-indole-1-carboxylic acid amide] | 16 nM
14 | COC(=O)[C@@H](NC(=O)[C@@H]1C[C@H](N)CN1C(=O)Nc1cn(C(N)=O)c2ccccc12)c1ccccc1 [Example 98, (S)-{[(2S,4S)-4-Amino-1-(1-carbamoyl-1H-indol-3-ylcarbamoyl)-pyrrolidine-2-carbonyl]-amino}-phenyl-acetic acid methyl ester] | 1850 nM
15 | COC(=O)c1cccc2c(C(C)=O)cn(CC(=O)N3[C@@H]4C[C@@H]4C[C@H]3C(=O)NCc3cccc(Cl)c3F)c12 [Example 541, 3-Acetyl-1-{2-[(1R,3S,5R)-3-(3-chloro-2-fluorobenzylcarbamoyl)-2-aza-bicyclo[3.1.0]hex-2-yl]-2-oxo-ethyl}-1H-indole-7-carboxylic acid methyl ester] | 91 nM
16 | NC(=O)n1cc(NC(=O)N2CCS[C@H]2C(=O)NCc2cccc(Cl)c2F)c2cc(F)ccc21 [Example 264, (S)-Thiazolidine-2,3-dicarboxylic acid 3-[(1-carbamoyl-5-fluoro-1H-indol-3-yl)-amide] 2-(3-chloro-2-fluoro-benzylamide)] | 10 nM
17 | NC(=O)n1cc(NC(=O)N2C[C@@H](N)C[C@H]2C(=O)NCc2ccccc2O)c2ccccc21 [Example 48, (2S,4S)-4-Amino-pyrrolidine-1,2-dicarboxylic acid 1-[(1-carbamoyl-1H-indol-3-yl)-amide] 2-(2-hydroxy-benzylamide)] | 7500 nM
18 | CNC(=O)c1cn(CC(=O)N2C[C@H](F)C[C@H]2C(=O)NCc2cccc(Cl)c2F)c2ccccc12 [Example 519, 1-{2-[(2S,4R)-2-(3-Chloro-2-fluoro-benzylcarbamoyl)-4-fluoro-pyrrolidin-1-yl]-2-oxo-ethyl}-1H-indole-3-carboxylic acid methylamide] | 722 nM
19 | NC(=O)n1cc(NC(=O)N2C[C@H](F)C[C@H]2C(=O)N[C@H](CO)c2ccccc2)c2ccccc21 [Example 13, (2S,4R)-4-Fluoro-pyrrolidine-1,2-dicarboxylic acid 1-[(1-carbamoyl-1H-indol-3-yl)-amide] 2-[((S)-2-hydroxy-1-phenyl-ethyl)-amide]] | 139 nM
20 | NC(=O)n1cc(NC(=O)N2C[C@@H](N)C[C@H]2C(=O)Nc2cccc(-c3ccccc3)c2)c2ccccc21 [Example 103, (2S,4S)-4-Amino-pyrrolidine-1,2-dicarboxylic acid 2-biphenyl-3-ylamide 1-[(1-carbamoyl-1H-indol-3-yl)-amide]] | 550 nM
21 | CC(=O)c1cn(CC(=O)N2CCS[C@H]2C(=O)NCc2cccc(Cl)c2F)c2ncccc12 [Example 513, (S)-3-[2-(3-Acetyl-pyrrolo[2,3-b]pyridin-1-yl)-acetyl]-thiazolidine-2-carboxylic acid 3-chloro-2-fluoro-benzylamide] | 193 nM
22 | CN(C)C[C@@H](NC(=O)[C@@H]1C[C@H]2C[C@H]2N1C(=O)Cc1cn(C(N)=O)c2ccccc12)c1cccc(Cl)c1F [Example 458, 3-(2-{(1R,3S,5R)-3-[(S)-1-(3-Chloro-2-fluoro-phenyl)-2-dimethylamino-ethylcarbamoyl]-2-aza-bicyclo[3.1.0]hex-2-yl}-2-oxo-ethyl)-indole-1-carboxylic acid amide] | 169 nM
23 | NC(=O)n1cc(NC(=O)N2C[C@](F)(CF)C[C@H]2C(=O)NCc2cccc(Cl)c2F)c2ccccc21 [Example 241, (2S,4S)-4-Fluoro-4-fluoromethyl-pyrrolidine-1,2-dicarboxylic acid 1-[(1-carbamoyl-1H-indol-3-yl)-amide] 2-(3-chloro-2-fluoro-benzylamide)] | 250 nM
24 | COc1cc(F)c(F)c(CNC(=O)[C@@H]2SCCN2C(=O)Nc2cn(C(N)=O)c3ccccc23)c1 [Example 235, (S)-Thiazolidine-2,3-dicarboxylic acid 3-[(1-carbamoyl-1H-indol-3-yl)-amide] 2-(2,3-difluoro-5-methoxy-benzylamide)] | 80 nM
25 | COC1(OC)C[C@@H](C(=O)NCc2cccc(Cl)c2F)N(C(=O)Nc2cn(C(N)=O)c3ccccc23)C1 [Example 428, S)-4,4-Dimethoxy-pyrrolidine-1,2-dicarboxylic acid 1-[(1-carbamoyl-1H-indol-3-yl)-amide]2-(3-chloro-2-fluoro-benzylamide] | 478 nM
26 | NC(=O)n1cc(NC(=O)N2C[C@@H](N)C[C@H]2C(=O)NCc2cc(Cl)cc(Cl)c2)c2ccccc21 [Example 60, (2S,4S)-4-Amino-pyrrolidine-1,2-dicarboxylic acid 1-[(1-carbamoyl-1H-indol-3-yl)-amide] 2-(3,5-dichloro-benzylamide)] | 800 nM
27 | NC(=O)n1cc(NC(=O)N2C[C@@](O)(CO)C[C@H]2C(=O)NCc2cccc(Cl)c2F)c2ccccc21 [Example 196, (2S,4R)-4-Hydroxy-4-hydroxymethyl-pyrrolidine-1,2-dicarboxylic acid 1-[(1-carbamoyl-1H-indol-3-yl)-amide] 2-(3-chloro-2-fluoro-benzylamide)] | 700 nM
28 | NC(=O)c1cn(CC(=O)N2C[C@H](F)C[C@H]2C(=O)NCc2cccc(Cl)c2F)c2cc(OCC(=O)O)ccc12 [Example 593, (3-Carbamoyl-1-{2-[(2S,4R)-2-(3-chloro-2-fluoro-benzylcarbamoyl)-4-fluoro-pyrrolidin-1-yl]-2-oxo-ethyl}-1H-indol-6-yloxy)-acetic acid] | 56 nM
